Reference: US20050142130A1, “Use of angiotensin-(1-7) for preventing and/or reducing the formation of neointima” (priority 2001, published 2005)
Entries after “also recorded” stand apart in the source; their conditions may differ.

Tests used:
[1] = system: stented rat abdominal aorta (neointimal formation); assay: Rat abdominal aorta stenting model, histomorphometry and histology after 28 days; type: in vivo, Wistar rats
Procedure: Twenty-eight male Wistar rats (Harlan, Horst, Netherlands) weighing 450 to 520 grams were anesthetized with O2, N2O and isofluorane (Abbot B.V., Hoofddorp, Netherlands). A pre-mounted 2.5×9 mm BeStentTM 2 (Medtronic-Bakken Research, Maastricht, the Netherlands) was implanted in the abdominal aorta as previously described, or a sham operation was performed.^35 Subsequently, an osmotic minipump with a pumping rate of 0.25 μl/hour, lasting for 28 days (Model 2004, Alzet, Charles River Nederland, Maastricht, Netherlands), was implanted subcutaneously for drug delivery via a catheter in the jugular vein. […] rats received angiotensin-(1-7) (Bachem, Weil am Rhein, Germany) (24 μg/kg/hour) (n=7) or saline (0.25 μl/hour) (n=10). Sham-operated rats received saline infusion (n=6). […] At this concentration, Ang-(1-7) binds to the Mas receptor and has subsequent functional effects. Five rats died peri-operatively due to rupture of the aorta. After 28 days, the animals were anesthetized and heparinized with 500 IU intravenously (Leo Pharma B.V., Breda, Netherlands). The abdominal aortas were subsequently harvested, fixed, embedded in methylmetacrylate, sectioned and stained for histological analysis. The endothelial function was tested in isolated thoracic aortic rings. Histomorphometrical analysis was performed on elastica van Gieson-stained sections by measurements of the proximal, middle and distal parts of each stent. To assess neointimal formation, areas within the external elastic lamina (EEL), internal elastic lamina (IEL) and lumen were measured by using digital morphometry. The neointimal area, media area, lumen area and the percentage of stenosis were calculated. The injury and inflammation scores were assessed as described by Schwartz et al. and Kornowski et al. Briefly, each strut was assigned a nominal score from 0 to 3 dependent upon the severity of the injury or inflammation. The average score is calculated by dividing the sum of scores by the number of struts. Total cell density and polymorphonuclear leukocyte density were determined in hematoxylin-eosin stained sections at ×400 magnification and expressed as ×100/mm^2. To assess a single measurement for each stent, the mean values of the proximal, middle and distal parts were calculated. Data are expressed as mean value±standard error of the mean (SEM). Statistical analysis between groups was performed by a student's t-test. Differences in dose-response curves between groups were tested by ANOVA for repeated measures using Greenhouse-Geisser correction for asphericity. Values of p=0.05 were considered statistically significant. For statistical analysis, SPSS software (Chicago, USA) was used.

thoracic aortic rings = assay: Organ bath studies with isolated thoracic aortic rings (endothelial function) from stented, treated rats; type: in vivo, Wistar rats
Procedure: Twenty-eight male Wistar rats (Harlan, Horst, Netherlands) weighing 450 to 520 grams were anesthetized with O2, N2O and isofluorane (Abbot B.V., Hoofddorp, Netherlands). A pre-mounted 2.5×9 mm BeStentTM 2 (Medtronic-Bakken Research, Maastricht, the Netherlands) was implanted in the abdominal aorta as previously described, or a sham operation was performed.^35 Subsequently, an osmotic minipump with a pumping rate of 0.25 μl/hour, lasting for 28 days (Model 2004, Alzet, Charles River Nederland, Maastricht, Netherlands), was implanted subcutaneously for drug delivery via a catheter in the jugular vein. […] rats received angiotensin-(1-7) (Bachem, Weil am Rhein, Germany) (24 μg/kg/hour) (n=7) or saline (0.25 μl/hour) (n=10). Sham-operated rats received saline infusion (n=6). […] At this concentration, Ang-(1-7) binds to the Mas receptor and has subsequent functional effects. Five rats died peri-operatively due to rupture of the aorta. After 28 days, the animals were anesthetized and heparinized with 500 IU intravenously (Leo Pharma B.V., Breda, Netherlands). The abdominal aortas were subsequently harvested, fixed, embedded in methylmetacrylate, sectioned and stained for histological analysis. […] The endothelium-dependant vasodilatation was assessed by a cumulative dose of meatcholine (10 nM to 10 mM). […] Data are expressed as mean value±standard error of the mean (SEM). […]

in vivo = details: male, Wistar, rat, iv, 24 ug/kg/hour
Procedure: Twenty-eight male Wistar rats (Harlan, Horst, Netherlands) weighing 450 to 520 grams were anesthetized with O2, N2O and isofluorane (Abbot B.V., Hoofddorp, Netherlands). A pre-mounted 2.5×9 mm BeStent™ 2 (Medtronic-Bakken Research, Maastricht, the Netherlands) was implanted in the abdominal aorta as previously described, or a sham operation was performed.^35 Subsequently, an osmotic minipump with a pumping rate of 0.25 μl/hour, lasting for 28 days (Model 2004, Alzet, Charles River Nederland, Maastricht, Netherlands), was implanted subcutaneously for drug delivery via a catheter in the jugular vein. Stented rats received angiotensin-(1-7) (Bachem, Weil am Rhein, Germany) (24 μg/kg/hour) (n=7) or saline (0.25 μl/hour) (n=10). Sham-operated rats received saline infusion (n=6). […] At this concentration, Ang-(1-7) binds to the Mas receptor and has subsequent functional effects. Five rats died peri-operatively due to rupture of the aorta.

[2] = stented rats, 24 μg/kg/hour, mean ± SEM

- level at time molar (in vivo): ~0.918 nM
SMILES: CC[C@H](C)[C@H](NC(=O)[C@H](Cc1ccc(O)cc1)NC(=O)[C@@H](NC(=O)[C@H](CCCNC(=N)N)NC(=O)[C@@H](N)CC(=O)O)C(C)C)C(=O)N[C@@H](Cc1c[nH]cn1)C(=O)N1CCC[C@H]1C(=O)O [Ang-(1-7), angiotensin-(1-7)]
- Neointimal Area [1, 2]: 0.51 ± 0.05 mm^2
- Neointimal Thickness [1, 2]: 112 ± 8 μm
- Percentage Stenosis [1, 2]: 10.4 ± 1.0%
- IEL Area, change with treatment ([1]; vs saline control): −2%
- Mean Injury Score, change with treatment ([1]; vs saline control): 18.2%
- Media Area, change with treatment ([1]; vs saline control): −12.8%
- Neointimal Area, change with treatment ([1]; vs saline control): −27.1%
- Neointimal Thickness, change with treatment ([1]; vs saline control): −20.6%
- Percentage Stenosis, change with treatment ([1]; vs saline control): −25.7%
- Decrease in neointimal area ([1]; vs saline-treated stented rats): 27%
- Decrease in neointimal thickness ([1]; vs saline-treated stented rats): 21%
- Decrease in percentage stenosis ([1]; vs saline-treated stented rats): 26%
- Relaxation on endothelium-independent vasodilator sodium nitrite (thoracic aortic rings; sodium nitrite 10 mM, phenylephrine precontracted rings, vs sham and control): equal; also recorded: No differences
- Contraction on phenylephrine (thoracic aortic rings; thoracic aortic rings, phenylephrine 1 mM, mean ± SEM): 254±29 μm
